Measured values from BigSolDB 2.1.

CC1(C)COP(=O)(Oc2cc(OP3(=O)OCC(C)(C)CO3)cc(OP3(=O)OCC(C)(C)CO3)c2)OC1
solubility (mole fraction)
Conditions | in 1,4-dioxane | in THF | in acetone | in acetonitrile | in chloroform | in dichloromethane | in ethanol | in methanol
288.15 K | 8.73e-05 | 0.000132 | 0.000453 | 0.000941 | 0.00551 | 0.00512 | 7.83e-05 | 0.000423
293.15 K | 9.57e-05 | 0.000138 | 0.000502 | 0.00109 | 0.00634 | 0.00589 | 9.43e-05 | 0.000496
298.15 K | 0.00011 | 0.000144 | 0.000568 | 0.00136 | 0.00713 | 0.00673 | 0.000111 | 0.000568
303.15 K | 0.000127 | 0.000149 | 0.000638 | 0.00158 | 0.00802 | 0.00779 | 0.00013 | 0.000648
308.15 K | 0.000139 | 0.000154 | 0.000718 | 0.00195 | 0.00921 | 0.00891 | 0.000156 | 0.000748
313.15 K | 0.000153 | 0.000158 | 0.000805 | 0.00238 | 0.0106 | – | 0.000192 | 0.000874
318.15 K | 0.000171 | 0.000162 | 0.000924 | 0.00289 | 0.0121 | – | 0.000225 | 0.000975
